{"source": "patent US5440041A", "about": "“Acetal or ketal substituted xanthine compounds” (Cell Therapeutics, Inc., priority 1994, dated 1995)", "key": {"PAPH": {"tested_on": "PAPH", "test": "Inhibition of PAPH", "type": "biochemical", "conditions": "specific activation pathway not involving PI; substrates with 1,2-diunsaturated and 1-alkyl,2-unsaturated subspecies", "protocol": "One in vitro assay measures inhibition of the relevant enzymes lysophosphatidic acid acyltransferase (LPAAT) and phosphatidic acid phosphoryl hydrolase (PAPH). The assay involves incubating of target cells with a primary stimulus (e.g., a variety of cytokines, growth factors, oncogene products, putative therapeutic agents, irradiation, viral infection, toxins, bacterial infection and the products thereof, and any stimulus which, if not counteracted, has a deleterious effect on the target cell) in the presence or absence of an inventive compound at varying dosage levels. […] It is important to note that the assay method permits discrimination between various forms of PA and DAG so that those relevant to the pathway affected by the (R) or (S) compounds of the invention can be measured directly. […] Thus, the relevant unsaturated (non-arachidonic) PA and DAG subspecies may be detected. […]"}, "[1]": {"tested_on": "polymorphonuclear leukocytes", "conditions": "in response to a stimulator of chemotaxis; U.S. Pat. No. 4,636,507; cited from earlier work"}, "certain cytokines": {"tested_on": "certain cytokines", "conditions": "U.S. Pat. No. 4,965,271 and U.S. Pat. No. 5,096,906; cited from earlier work"}, "[2]": {"tested_on": "tumor necrosis factor (TNF)", "conditions": "PTX recipients; cited from earlier work"}}}
{"smiles": "CC(=O)CCCCn1c(=O)c2c(ncn2C)n(C)c1=O", "note": "[PTX, 1-(5-oxohexyl)-3,7-dimethylxanthine]", "values": [{"measurement": "effect on PAPH", "setting": "PAPH", "result": "blocks PAPH in a specific activation pathway"}, {"measurement": "effect on chemotaxis in polymorphonuclear leukocytes", "setting": "[1]", "result": "stimulate chemotaxis"}, {"measurement": "effect on activity of certain cytokines to affect chemotaxis", "setting": "certain cytokines", "result": "inhibit activity of certain cytokines to affect chemotaxis"}, {"measurement": "TNF levels in normal volunteers", "setting": "[2]", "result": "higher among PTX recipients"}]}
